Data on twelve molecules can be found in patent publication US6706740B2, “Fungicidal heterocyclic aromatic amides and their compositions, methods of use and preparation” (Dow AgroSciences LLC, priority 1999, dated 2004).

In experiment [1] the test system is Puccinia recondita—PUCCRT. Briefly: Brown Rust of Wheat, in vivo whole plant, 24 Hour Protectant. The settings on record: control of fungal infection vs untreated plants; for pest or weed control at 100 ppm: Puccinia, read-out: PUCCRT in vivo 1 Day Protectant.
The subject of experiment [2] is Magnaporthe grisea (Pyricularia oryzae—PYRIOR). Briefly: microbe, parasite or virus in culture. The experiment is classed as cell-based. The settings on record: Pyricularia oryzae, read-out: PYRIOR in vitro Growth Inhibition.
In experiment [3] the test system is Leptosphaeria nodorum—LEPTNO. Briefly: Glume Blotch of Wheat, in vivo whole plant, 24 Hour Protectant. The settings on record: Leptosphaeria, control of fungal infection vs untreated plants, read-out: LEPTNO in vivo 1 Day Protectant.
The test system of experiment [4] is Ustilago maydis (USTIMA). As to the kind of experiment: microbe, parasite or virus in culture. The experiment is classed as cell-based. The settings on record: Mycosarcoma maydis, read-out: USTIMA in vitro Growth Inhibition.
Experiment [5] has as its system Mycosphaerella graminicola (Septoria tritici—SEPTTR). Briefly: In vitro fungal growth inhibition, Mycosphaerella graminicola (SEPTTR). It counts as cell-based. The settings on record: Zymoseptoria tritici, read-out: SEPTTR in vitro Growth Inhibition.
Experiment [6] deals with Stagonospora nodorum (Leptosphaeria nodorum—LEPTNO). As to the kind of experiment: In vitro fungal growth inhibition, Stagonospora nodorum (LEPTNO). The following applies: Leptosphaeria, read-out: LEPTNO in vitro Growth Inhibition. It counts as cell-based.
Experiment [7] deals with Rhizoctonia solani (RHIZSO). Briefly: microbe, parasite or virus in culture. The experiment is classed as cell-based. The following applies: Rhizoctonia solani, read-out: RHIZSO in vitro Growth Inhibition.
Experiment [8] concerns Septoria tritici—SEPTTR. Briefly: Leaf Blotch of Wheat, in vivo whole plant, 24 Hour Protectant. The following applies: Zymoseptoria tritici, 24 h, control of fungal infection vs untreated plants, read-out: SEPTTR in vivo 1 Day Protectant.
The subject of experiment [9] is Erysiphe graminis—ERYSGT. As to the kind of experiment: Powdery Mildew of Wheat, in vivo whole plant, 24 Hour Protectant. The settings on record: Erysiphe, control of fungal infection vs untreated plants, read-out: ERYSGT in vivo 1 Day Protectant.
For experiment [10], the system named is Phytophthora infestans—PHYTIN. As to the kind of experiment: whole plant or invertebrate. The settings on record: Phytophthora, in Solanum lycopersicum, 24 h, read-out: PHYTIN in vivo 1 Day Protectant. The experiment is classed as in vivo.
In experiment [11] the test system is Phytophthora infestans (PHYTIN). Briefly: microbe, parasite or virus in culture. The experiment is classed as cell-based. The settings on record: Phytophthora infestans, read-out: PHYTIN in vitro Growth Inhibition.
Where [12] appears, read: 100 ppm spray, 24 hour protectant, wheat.
Setting [13] is: wheat plants sprayed at 100 ppm, inoculated after 24 hours.
The mark [14] stands for this setting: 100 ppm spray, wheat, 24 hour protectant.

Molecules are shown by their SMILES. Where two headings read alike, the source gives them in different places. A value given as a limit tells only on which side of the number the result lay.

As for `COc1ccnc(C(=O)NC2CC(C)(C)C(OC)C(C)(C)C2)c1O` (stereo not drawn) [Compound 265], the pest or weed control at 100 ppm was below 25% in [1] (setting [12]); 25 to 74% in experiment [3] (setting [12]); 25 to 74% in experiment [8] (setting [12]); 25 to 74% in experiment [9] (setting [12]); below 25% in [10]. For the same molecule, the inhibition at 25 ppm in experiment [2], in [4], in [5] (25 ppm in growth medium), in [6] (25 ppm in growth medium), in [7] and in [11] was below 80% each time.
As for `C[C@@H](NC(=O)c1ncccc1O)c1cccc2ccccc12` [Compound 231], the pest or weed control at 100 ppm in experiment [1] (setting [12]), in experiment [3] (setting [12]), in experiment [8] (setting [12]), in experiment [9] (setting [12]) and in experiment [10] was below 25% throughout. Besides, the inhibition (usually the relative decrease from the control value, in per cent) at 25 ppm in [2] was above 80%; in experiment [4], below 80%; in [5] (25 ppm in growth medium) it was below 80%; in [6] (25 ppm in growth medium) it was below 80%; in experiment [7], below 80%; in [11], below 80%.
Turning to `COC(=O)C(COC(=O)COCc1ccccc1)NC(=O)c1nccc(OC)c1OC(C)=O` (stereo not drawn) [Compound 585], the pest or weed control at 100 ppm in [1] (setting [13]) was 25 to 74%; in experiment [3] (setting [13]), 25 to 74%; in experiment [8] (setting [13]), 25 to 74%; in [9] (setting [13]), below 25%; in [10] it was below 25%. The inhibition at 25 ppm in [2], in experiment [4], in [5] (25 ppm in the growth medium), in experiment [6] (25 ppm in the growth medium), in [7] and in experiment [11] was below 80% throughout.
Regarding `Cc1cc(C)cc(NC(=O)c2ncccc2O)c1` [Compound 215], the pest or weed control at 100 ppm in experiment [1] (setting [12]), in experiment [3] (setting [12]), in experiment [8] (setting [12]), in [9] (setting [12]) and in experiment [10] was below 25% throughout. Also, the inhibition at 25 ppm was below 80% in experiment [2]; below 80% in experiment [4]; above 80% in experiment [5] (25 ppm in growth medium); below 80% in [6] (25 ppm in growth medium); below 80% in experiment [7]; below 80% in experiment [11].
As for `COc1ccnc(C(=O)N[C@H](C(=O)O[C@@H](C)[C@H](OC(=O)C(C)C)[C@@H](Cc2ccccc2)C(=O)OCc2ccccc2)[C@@H](C)OC(C)=O)c1O` [Compound 361], the “PUCCRT in vivo 1 Day Protectant” value in experiment [1] (setting [14]) is on record as “+ +”. Besides, the inhibition at 25 ppm was above 80% in experiment [2]; below 80% in experiment [4]; above 80% in experiment [5] (25 ppm in growth medium); below 80% in experiment [6] (25 ppm in growth medium); below 80% in [7]; above 80% in [11]. Moreover, the pest or weed control at 100 ppm in experiment [3] (setting [14]) was 25 to 74%; in experiment [8] (setting [14]) it was below 25%; in [9] (setting [14]) it was below 25%; in experiment [10], below 25%.
For `COc1ccnc(C(=O)Nc2ccc(/C(=N/O)c3cccc(C(F)(F)F)c3)cc2)c1O` [Compound 407], the pest or weed control at 100 ppm was below 25% in experiment [1] (setting [14]); 25 to 74% in experiment [3] (setting [14]); 25 to 74% in experiment [8] (setting [14]); below 25% in experiment [9] (setting [14]); below 25% in experiment [10]. Besides, the inhibition at 25 ppm was below 80% in experiment [2]; below 80% in experiment [4]; above 80% in [5] (25 ppm in growth medium); below 80% in experiment [6] (25 ppm in growth medium); below 80% in [7]; below 80% in experiment [11].
As to `COc1cccc(Oc2cccc(NC(=O)c3nccc(OC)c3O)c2)c1` [Compound 431], the pest or weed control at 100 ppm is below 25% in [1] (setting [14]); below 25% in [3] (setting [14]); 25 to 74% in experiment [8] (setting [14]); below 25% in experiment [9] (setting [14]); below 25% in experiment [10]. For the same molecule, the inhibition at 25 ppm in [2] is below 80%; in [4], below 80%; in experiment [5] (25 ppm in growth medium), above 80%; in [6] (25 ppm in growth medium), above 80%; in [7], below 80%; in experiment [11], below 80%.
For `COc1ccnc(C(=O)NC2COC(=O)CC(c3ccccc3)C(=O)OC2)c1O` (stereo not drawn) [Compound 375], the pest or weed control at 100 ppm is below 25% in [1] (setting [14]); 25 to 74% in [3] (setting [14]); 25 to 74% in experiment [8] (setting [14]); below 25% in experiment [9] (setting [14]); below 25% in experiment [10]. For the same molecule, the inhibition at 25 ppm in [2], in [4], in [5] (25 ppm in growth medium), in [6] (25 ppm in growth medium), in experiment [7] and in experiment [11] was below 80% throughout.
Consider `CO/N=C(/c1ccc(NC(=O)c2nccc(OC)c2O)cc1)c1cccc(C(F)(F)F)c1` [Compound 408], for which the pest or weed control at 100 ppm in experiment [1] (setting [14]) is below 25%; in [3] (setting [14]) it was 25 to 74%; in experiment [8] (setting [14]), 25 to 74%; in [9] (setting [14]), 25 to 74%; in [10], below 25%. For the same molecule, the inhibition at 25 ppm in experiment [2] was below 80%; in experiment [4], below 80%; in [5] (25 ppm in growth medium), below 80%; in [6] (25 ppm in growth medium), above 80%; in [7], below 80%; in [11], below 80%.
On to `COc1ccnc(C(=O)N[C@@H]2C[C@@H](C(F)(F)F)C[C@@H](C(F)(F)F)C2)c1OC(C)=O` [Compound 577], for which the pest or weed control at 100 ppm in experiment [1] (setting [13]) is below 25%; in experiment [3] (setting [13]), 25 to 74%; in experiment [8] (setting [13]), 25 to 74%; in experiment [9] (setting [13]), below 25%; in experiment [10], below 25%. The inhibition at 25 ppm in experiment [2], in [4], in experiment [5] (25 ppm in the growth medium), in experiment [6] (25 ppm in the growth medium), in [7] and in [11] was below 80% in each case.
`COc1ccnc(C(=O)N[C@@H]2OC[C@@H](OCc3ccccc3)[C@H](OCc3ccccc3)[C@H]2OCc2ccccc2)c1OC(C)=O` [Compound 592]: the pest or weed control at 100 ppm in [1] (setting [13]) was below 25%; in [3] (setting [13]), 25 to 74%; in experiment [8] (setting [13]) it was 25 to 74%; in experiment [9] (setting [13]), below 25%; in experiment [10] it was below 25%. The inhibition at 25 ppm in [2], in experiment [4], in [5] (25 ppm in the growth medium), in experiment [6] (25 ppm in the growth medium), in experiment [7] and in experiment [11] was below 80% in each case.
With `COc1ccnc(C(=O)NC2CCCCCCC2)c1O` [Compound 282], the pest or weed control at 100 ppm is 25 to 74% in experiment [1] (setting [12]); 25 to 74% in experiment [3] (setting [12]); 25 to 74% in experiment [8] (setting [12]); below 25% in experiment [9] (setting [12]); below 25% in experiment [10]. Further, the inhibition at 25 ppm in experiment [2], in [4], in experiment [5] (25 ppm in growth medium), in [6] (25 ppm in growth medium), in experiment [7] and in experiment [11] was below 80% in each case.
